Test results reported in the CheMixHub viscosity set.

Test: xn = mol fraction of the nth substance listed

CC(C)(C)O + CC(C)O
303.2 K, 101.33 kPa
Settings	viscosity [mPa·s]
x2 = 0.05	3.297
x2 = 0.1	3.237
x2 = 0.15	3.172
x2 = 0.2	3.101
x2 = 0.3	2.931
x2 = 0.4	2.75
x2 = 0.5	2.572
x2 = 0.6	2.396
x2 = 0.7	2.224
x2 = 0.8	2.059
x2 = 0.85	1.979
x2 = 0.9	1.9
x2 = 0.95	1.831

CCNCC + CC(C)O
viscosity [mPa·s], 100 kPa
Settings	293.15 K	298.15 K	303.15 K	308.15 K	313.15 K	318.15 K	323.15 K
x1 = 0.0215	2.3	1.99	1.72	1.49	1.31	1.15	1.01
x1 = 0.0807	1.99	1.74	1.51	1.31	1.152	1.02	0.9
x1 = 0.1595	1.63	1.44	1.256	1.09	0.97	0.86	0.78
x1 = 0.2401	1.33	1.187	1.05	0.924	0.82	0.732	0.67
x1 = 0.3491	1.02	0.91	0.806	0.72	0.64	0.58	0.54
x1 = 0.4399	0.84	0.75	0.671	0.598	0.54	0.491	0.46
x1 = 0.5598	0.65	0.58	0.527	0.48	0.435	0.396	0.37
x1 = 0.6501	0.551	0.5	0.455	0.416	0.376	0.345	0.32
x1 = 0.7395	0.48	0.43	0.39	0.36	0.33	0.304	0.283
x1 = 0.8496	0.41	0.376	0.343	0.319	0.296	0.271	0.251
x1 = 0.94	0.36	0.336	0.315	0.293	0.274	0.257	0.243
x2 = 0.0137	0.33	0.314	0.298	0.282	0.267	0.251	0.238

COCCOCCOCCO + CC(C)O
viscosity [mPa·s], 101 kPa
Settings	x1 = 0.0079	x1 = 0.0146	x1 = 0.0314	x1 = 0.0413	x1 = 0.0581	x1 = 0.0775	x1 = 0.1025
298.15 K	2.089	2.09	2.099	2.116	2.128	2.159	2.207
308.15 K	1.568	1.574	1.594	1.608	1.628	1.683	1.706
318.15 K	1.202	1.21	1.235	1.252	1.266	1.3	1.343

CC(C)(C)O + CCC(C)=O
viscosity [mPa·s]
Settings	298.15 K	303.15 K	308.15 K	313.15 K	318.15 K
101 kPa, x1 = 0.0925	0.3917	0.3748	0.3599	–	–
101 kPa, x1 = 0.1893	0.4117	0.3946	0.3737	–	–
101 kPa, x1 = 0.2885	0.4407	0.4203	0.3964	–	–
101 kPa, x1 = 0.3835	0.4875	0.452	0.422	–	–
101 kPa, x1 = 0.4877	0.5818	0.5397	0.4915	–	–
101 kPa, x1 = 0.5862	0.7295	0.6627	0.602	–	–
101 kPa, x1 = 0.6907	0.9865	0.8797	0.7882	–	–
101 kPa, x1 = 0.7895	1.424	1.237	1.085	–	–
101 kPa, x1 = 0.8935	2.253	1.879	1.588	–	–
101.3 kPa, x1 = 0.0985	0.423	0.401	0.38	0.361	0.343
101.3 kPa, x1 = 0.1968	0.464	0.438	0.413	0.391	0.37
101.3 kPa, x1 = 0.2962	0.52	0.487	0.457	0.429	0.405
101.3 kPa, x1 = 0.3941	0.595	0.553	0.514	0.48	0.449
101.3 kPa, x1 = 0.4949	0.705	0.647	0.596	0.551	0.511
101.3 kPa, x1 = 0.5928	0.859	0.779	0.708	0.647	0.593
101.3 kPa, x1 = 0.695	1.116	0.99	0.884	0.793	0.716
101.3 kPa, x1 = 0.8003	1.577	1.357	1.178	1.031	0.909
101.3 kPa, x1 = 0.9037	2.474	2.029	1.687	1.421	1.212

CCNCC + CCC(C)=O
298.15 K, 101 kPa
Settings	viscosity [mPa·s]
x2 = 0.1013	0.273
x2 = 0.2023	0.279
x2 = 0.303	0.283
x2 = 0.4034	0.287
x2 = 0.5035	0.293
x2 = 0.6034	0.3
x2 = 0.703	0.313
x2 = 0.8023	0.331
x2 = 0.9013	0.353

CCNCC + CCC(C)O
viscosity [mPa·s], 100 kPa
Settings	293.15 K	298.15 K	303.15 K	308.15 K	313.15 K	318.15 K	323.15 K
x1 = 0.0221	3.49	2.91	2.42	2.04	1.73	1.49	1.28
x1 = 0.081	3.02	2.54	2.12	1.82	1.55	1.34	1.18
x1 = 0.1601	2.49	2.11	1.8	1.56	1.33	1.16	1.049
x1 = 0.24	2.04	1.75	1.51	1.31	1.15	1.01	0.93
x1 = 0.3494	1.602	1.37	1.17	1.033	0.92	0.83	0.771
x1 = 0.4395	1.32	1.13	0.98	0.867	0.78	0.71	0.66
x1 = 0.5602	1.032	0.868	0.754	0.68	0.62	0.574	0.533
x1 = 0.65	0.827	0.712	0.628	0.57	0.528	0.489	0.459
x1 = 0.74	0.662	0.58	0.515	0.48	0.443	0.416	0.389
x1 = 0.8503	0.496	0.447	0.41	0.38	0.359	0.337	0.318
x1 = 0.94	0.384	0.356	0.335	0.309	0.298	0.284	0.268
x2 = 0.0129	0.336	0.317	0.3	0.284	0.27	0.257	0.244

COCCOCCOCCO + CCC(C)O
viscosity [mPa·s], 101 kPa
Settings	x1 = 0.0039	x1 = 0.0079	x1 = 0.0151	x1 = 0.0318	x1 = 0.0511	x1 = 0.08	x1 = 0.1038
298.15 K	3.101	3.074	3.046	2.988	2.947	2.893	2.942
308.15 K	2.163	2.161	2.148	2.133	2.132	2.128	2.186
318.15 K	1.565	1.562	1.564	1.569	1.577	1.611	1.674

Nc1ccccc1 + CCC(C)O
303 K, 101.33 kPa
Settings	viscosity [mPa·s]
x1 = 0.1	2.052
x1 = 0.2	1.978
x1 = 0.3	1.954
x1 = 0.4	1.944
x1 = 0.5	2.076
x1 = 0.6	2.156
x1 = 0.8	2.504
x1 = 0.9	2.835

CCNCC + CCCC(C)O
viscosity [mPa·s], 100 kPa
Settings	293.15 K	298.15 K	303.15 K	308.15 K	313.15 K	318.15 K	323.15 K
x1 = 0.0218	3.75	3.12	2.6	2.18	1.85	1.59	1.37
x1 = 0.081	3.2	2.7	2.28	1.92	1.66	1.44	1.25
x1 = 0.16	2.57	2.207	1.9	1.62	1.42	1.25	1.1
x1 = 0.2399	2.04	1.78	1.555	1.35	1.204	1.07	0.96
x1 = 0.3499	1.5	1.33	1.18	1.05	0.945	0.858	0.78
x1 = 0.44	1.16	1.04	0.94	0.85	0.778	0.71	0.65
x1 = 0.56	0.84	0.76	0.7	0.644	0.592	0.544	0.494
x1 = 0.6501	0.68	0.629	0.577	0.53	0.489	0.446	0.41
x1 = 0.74	0.552	0.506	0.466	0.435	0.4	0.367	0.34
x1 = 0.8497	0.45	0.416	0.387	0.36	0.335	0.311	0.285
x1 = 0.9397	0.368	0.346	0.325	0.304	0.285	0.268	0.25
x2 = 0.0189	0.332	0.316	0.3	0.283	0.268	0.254	0.24

COCCOCCOCCO + CCCC(C)O
viscosity [mPa·s], 101 kPa
Settings	x1 = 0.0047	x1 = 0.0177	x1 = 0.0299	x1 = 0.0546	x1 = 0.0827	x1 = 0.1089
298.15 K	3.349	3.306	3.258	3.191	3.143	3.122
308.15 K	2.319	2.316	2.3	2.288	2.285	2.295
318.15 K	1.672	1.676	1.684	1.695	1.712	1.732

CC(C)C=O + CCCC=O
viscosity [mPa·s], 100 kPa
Settings	293.5 K	293.51 K	317.08 K	318.11 K
x1 = 0.12	–	23.21	17.25	–
x1 = 0.2	2.307	–	–	1.698

Cc1ccc(NC(=O)NCCCCCCCCCCC(C)C)cc1NC(=O)NCCCCCCCCCCC(C)C + CCCCC
Settings	viscosity [mPa·s]
293.15 K, 100 kPa, x1 = 0.0001	204
